Source: patent publication US20150216182A1, “COMPOSITIONS AND METHODS OF THE ATTRACTION AND REPULSION OF INSECTS” (Olfactor Laboratories, Inc., priority 2012, published 2015)
One block for each compound: values may come before it.

Experiments:
[1] = tested on: cpA neurons; test: extracellular single-sensillum electrophysiology: inhibition of CO2-responsive (cpA) neuronal activity; settings: for Class: Table 10, single compounds, percent reduction in cpA activity compared to baseline; for Class (inhibitor class of the individual component): Inh = inhibitor
[2] = tested on: female mosquitoes; test: whole plant or invertebrate; settings: 2 h; for mortality at 200 µg/mL: read-out: % mortality with 0.2 mg/ml; for mortality at 2000 µg/mL: read-out: % mortality with 2 mg/ml
[3] = tested on: cpA neurons; test: extracellular single-sensillum electrophysiology: activation of cpA neuronal activity; settings: for Class: Table 6, single compounds, increase over baseline cpA neuronal activity
[4] = tested on: larvae; test: larvicidal activity assay; format: in vivo; settings: 24 hour exposure, dead larvae / total larvae; for pest or weed control at 0.25 %: read-out: % Lethality with 0.25% compound conc.; for pest or weed control at 100 ppm: read-out: % Lethality at 100 ppm
Protocol: A 6-well plate (Corning Life Sciences, Tewksbury, Mass.) is used to test a compound's larvicidal activity. […] After a 24 hour exposure, the number of dead larvae are counted and recorded.
The results are presented in Table 17 as % lethality (the number of dead larvae divided by the total number of larvae).

[5] = Table 13, single component alone
[6] = Table 16, single component alone

effect on CO2-receptor activity (FIG. 1) ([1]; 1% concentration in paraffin oil): inhibitor
Compound: COc1ncccc1C

Compound: CCOC(=O)CC(C)=O [OLI0022, ethylacetoacetate]
mortality at 200 µg/mL [2]: 0% | mortality at 2000 µg/mL [2]: 0% | Class [3]: Moderate Activator (Moderate activators yield an increase in neuronal activity that is between 40 and 60 spk/sec over baseline neuronal activity) | Comp A Class ([3]; Table 9, component A tested individually): Mod | Comp B Class ([3]; Table 9, component B tested individually): Mod | Class B (activator class of the individual component) ([3]; Table 15, single component alone, Mod Actv): Mod

Compound: C=CC(=O)CC [OLI0023, ethylvinylketone]
Class [3]: Moderate Activator (Moderate activators yield an increase in neuronal activity that is between 40 and 60 spk/sec over baseline neuronal activity)

Compound: Cc1ccc(C=O)c(C)c1 [OLI0030, 2,4-dimethyl benzaldehyde]
Class [3]: Mild Activator (mild activators yield an increase in neuronal activity that is between 20 and 40 spk/sec over baseline neuronal activity)

Compound: CC1=CC(C)C(C=O)CC1 (centres unmarked) [OLI0031, 2,4-dimethyl-3-cyclohexene-carboxaldehyde]
Class [3]: Mild Activator (mild activators yield an increase in neuronal activity that is between 20 and 40 spk/sec over baseline neuronal activity)

Compound: COc1cc(C)ccc1O [OLI0033, 2-methoxy-4-methylphenol]
Class [3]: Mild Activator (mild activators yield an increase in neuronal activity that is between 20 and 40 spk/sec over baseline neuronal activity)

Compound: CC(C=O)c1ccccc1 (centres unmarked) [OLI0034, 2-phenylpropionaldehyde]
Class [3]: Mild Activator (mild activators yield an increase in neuronal activity that is between 20 and 40 spk/sec over baseline neuronal activity)

Compound: CCCC(=O)CC [OLI0035, 3-hexanone]
Class [3]: Mild Activator (mild activators yield an increase in neuronal activity that is between 20 and 40 spk/sec over baseline neuronal activity)

Compound: CCc1ccc(C=O)cc1 [OLI0036, 4-ethylbenzaldehyde]
Class [3]: Mild Activator (mild activators yield an increase in neuronal activity that is between 20 and 40 spk/sec over baseline neuronal activity)

Compound: CC1=CC(=O)CC(C)(C)C1=O [OLI0037, 4-oxoisophorone]
Class [3]: Mild Activator (mild activators yield an increase in neuronal activity that is between 20 and 40 spk/sec over baseline neuronal activity)

Compound: CC(=O)c1cnccn1 [OLI0038, acetyl-2-pyrazine]
Class [3]: Mild Activator (mild activators yield an increase in neuronal activity that is between 20 and 40 spk/sec over baseline neuronal activity)

Compound: CCCC(=O)OC(C)C(C)=O (centres unmarked) [OLI0039, butan-3-one-2yl butanoate]
Class [3]: Mild Activator (mild activators yield an increase in neuronal activity that is between 20 and 40 spk/sec over baseline neuronal activity)

Compound: COC(=O)CCC(=O)OC [OLI0040, dimethyl succinate]
Class [3]: Mild Activator (mild activators yield an increase in neuronal activity that is between 20 and 40 spk/sec over baseline neuronal activity)

Compound: CCOC(=O)CC(C)O (centres unmarked) [OLI0042, ethyl 3-hydroxybutyrate]
pest or weed control at 0.25 % ([4]; 0.25% compound): 0% | pest or weed control at 100 ppm ([4]; 100 ppm compound): 0% | mortality at 200 µg/mL [2]: 0% | mortality at 2000 µg/mL [2]: 0% | Class [3]: Mild Activator (mild activators yield an increase in neuronal activity that is between 20 and 40 spk/sec over baseline neuronal activity)

Compound: CCOC=O [OLI0044, ethylformate]
Class [3]: Mild Activator (mild activators yield an increase in neuronal activity that is between 20 and 40 spk/sec over baseline neuronal activity)

Compound: CCOC(=O)C(C)C [OLI0045, ethylisobutyrate]
Class [3]: Mild Activator (mild activators yield an increase in neuronal activity that is between 20 and 40 spk/sec over baseline neuronal activity)

Compound: CCOC(=O)CC(C)C [OLI0046, ethylisovalerate]
Class [3]: Mild Activator (mild activators yield an increase in neuronal activity that is between 20 and 40 spk/sec over baseline neuronal activity)

Compound: CCOC(=O)CCC(C)=O [OLI0047, ethyllevulinate]
Class [3]: Mild Activator (mild activators yield an increase in neuronal activity that is between 20 and 40 spk/sec over baseline neuronal activity)

Compound: CCOCc1ccco1 [OLI0048, furfurylethylether]
Class [3]: Mild Activator (mild activators yield an increase in neuronal activity that is between 20 and 40 spk/sec over baseline neuronal activity)

Compound: CCCCCCC=O [OLI0049, heptaldehyde]
Class [3]: Mild Activator (mild activators yield an increase in neuronal activity that is between 20 and 40 spk/sec over baseline neuronal activity)

Compound: CCCC(=O)CCC [OLI0050, heptanone-4]
Class [3]: Mild Activator (mild activators yield an increase in neuronal activity that is between 20 and 40 spk/sec over baseline neuronal activity)

Compound: CCCCCC=O [OLI0051, hexanal]
Class [3]: Mild Activator (mild activators yield an increase in neuronal activity that is between 20 and 40 spk/sec over baseline neuronal activity)

Compound: CC(=O)OCC(C)C [OLI0053, isobutyl acetate]
Class [3]: Mild Activator (mild activators yield an increase in neuronal activity that is between 20 and 40 spk/sec over baseline neuronal activity)

Compound: CCC(=O)OCC(C)C [OLI0054, isobutyl propionate]
Class [3]: Mild Activator (mild activators yield an increase in neuronal activity that is between 20 and 40 spk/sec over baseline neuronal activity)

Compound: C/C=C/C(=O)OCC(C)C [OLI0055, isobutyl trans-2-butenoate]
Class [3]: Mild Activator (mild activators yield an increase in neuronal activity that is between 20 and 40 spk/sec over baseline neuronal activity)

Compound: CCCC(=O)OC(C)C [OLI0056, isopropyl butyrate]
Class [3]: Mild Activator (mild activators yield an increase in neuronal activity that is between 20 and 40 spk/sec over baseline neuronal activity)

Compound: C/C=C(\C)C(=O)OC(C)C [OLI0057, isopropyl tiglate]
Class [3]: Mild Activator (mild activators yield an increase in neuronal activity that is between 20 and 40 spk/sec over baseline neuronal activity)

Compound: COC(=O)CC(C)C [OLI0058, methyl isovalerate]
Class [3]: Mild Activator (mild activators yield an increase in neuronal activity that is between 20 and 40 spk/sec over baseline neuronal activity)

Compound: Cc1cccc(C=O)c1 [OLI0060, m-tolualdehyde]
Class [3]: Mild Activator (mild activators yield an increase in neuronal activity that is between 20 and 40 spk/sec over baseline neuronal activity)

Compound: COc1ccccc1C=O [OLI0061, o-anisaldehyde]
Class [3]: Mild Activator (mild activators yield an increase in neuronal activity that is between 20 and 40 spk/sec over baseline neuronal activity)

Compound: CC(=O)OCC=C(C)C [OLI0062, prenylacetate]
Class [3]: Mild Activator (mild activators yield an increase in neuronal activity that is between 20 and 40 spk/sec over baseline neuronal activity)

Compound: CC(C)=C1CC[C@@H](C)CC1=O [OLI0064, R-+ pulegone]
Class [3]: Mild Activator (mild activators yield an increase in neuronal activity that is between 20 and 40 spk/sec over baseline neuronal activity)

Compound: CCC/C=C\CCOC(C)=O [OLI0078, (Z)-hept-3-enylacetate]
Class [1]: Mild Inhibitor (mild inhibitors (reducing activity by 20-40%)) | Class (inhibitor class of the individual component) [1, 5]: Mild | Class (inhibitor class of the individual component) [1, 6]: Mild

Compound: CCCCCCCCO [OLI0080, 1-octanol]
Class [1]: Mild Inhibitor (mild inhibitors (reducing activity by 20-40%)) | Class (inhibitor class of the individual component) [1, 5]: Mild | Class (inhibitor class of the individual component) [1, 6]: Mild

Compound: COC1=C(C)OC(C)C1=O (centres unmarked) [OLI0081, 2,5-dimethyl-4-methoxy-3(2H) furanone]
Class [1]: Mild Inhibitor (mild inhibitors (reducing activity by 20-40%))

Compound: CCCC(=O)OC(C)(C)Cc1ccccc1 [OLI0082, alpha,alpha-dimethyl phenethyl butyrate]
Class [1]: Mild Inhibitor (mild inhibitors (reducing activity by 20-40%)) | Class (inhibitor class of the individual component) [1, 5]: Mild

Compound: CC/C=C\CCOC(=O)CCC [OLI0083, cis-3-hexenyl butyrate]
Class [1]: Mild Inhibitor (mild inhibitors (reducing activity by 20-40%)) | Class (inhibitor class of the individual component) [1, 5]: Mild

Compound: CCOC(=O)c1cccnc1 [OLI0085, ethyl nicotinate]
Class [1]: Mild Inhibitor (mild inhibitors (reducing activity by 20-40%))

Compound: CCCCCCC(=O)OCC [OLI0086, Ethylheptanoate]
Class [1]: Mild Inhibitor (mild inhibitors (reducing activity by 20-40%))

Compound: O=C(C=Cc1ccccc1)OCCc1ccccc1 [OLI0103, phenethyl cinnamate]
pest or weed control at 0.25 % ([4]; 0.25% compound): 0% | pest or weed control at 100 ppm ([4]; 100 ppm compound): 0% | mortality at 200 µg/mL [2]: 5% | mortality at 2000 µg/mL [2]: 25%

Compound: CC(C)C(=O)OCC=Cc1ccccc1 [OLI0108, cinnamyl isobutyrate]
mortality at 200 µg/mL [2]: 10% | mortality at 2000 µg/mL [2]: 100%

Compound: O=Cc1ccccc1O [OLI0116, Salicylaldehyde]
mortality at 200 µg/mL [2]: 0% | mortality at 2000 µg/mL [2]: 0%

Compound: CC(C)C(=O)OCC=Cc1ccccc1 [OLI0117, cinnamyl isobutyrate]
pest or weed control at 0.25 % ([4]; 0.25% compound): 100% | pest or weed control at 100 ppm ([4]; 100 ppm compound): 0%

Compound: Ultrazur [OLI0118]
% Lethality with 0.25% compound conc. ([4]; 0.25% compound): 100% lethal | % Lethality at 100 ppm ([4]; 100 ppm compound): 0% lethal

Compound: dipropylenglykol-monomethyl ether [OLI0041]
Class [3]: Mild Activator (mild activators yield an increase in neuronal activity that is between 20 and 40 spk/sec over baseline neuronal activity)

Compound: ethyl-2,3,5(6)-dimethyl pyrazine [OLI0043]
Class [3]: Mild Activator (mild activators yield an increase in neuronal activity that is between 20 and 40 spk/sec over baseline neuronal activity)
